Common to all, as to assay: relative viability (nuclei count vs DMSO), 5 days (fraction); higher = more cells survive
Compound in the assay “Ruxolitinib + Linsitinib”: N#CC[C@H](C1CCCC1)n1cc(-c2ncnc3[nH]ccc23)cn1 [Ruxolitinib] + C[C@]1(O)C[C@@H](c2nc(-c3ccc4ccc(-c5ccccc5)nc4c3)c3c(N)nccn32)C1 [Linsitinib] (partner 1 µM)
The procedure, abridged: (§1)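 Cells from lung cancer lines were seeded into 1536-well plates and, one day later, dosed by pin tool. Treatments were either a single drug or a fixed dose of an anchor drug with five library-drug doses (not always all listed) in √10 steps. After 5 days, nuclei were stained in a one-step fixation (final 0.05% Triton X-100, 1% formaldehyde, 1 ug/ml Hoechst) and counted on 4× images, and relative viability is the treated-to-vehicle nuclei ratio, as the median of duplicate plates.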

Compound in the assay “VE-821 + Alpelisib”: CS(=O)(=O)c1ccc(-c2cnc(N)c(C(=O)Nc3ccccc3)n2)cc1 [VE-821] + Cc1nc(NC(=O)N2CCC[C@H]2C(N)=O)sc1-c1ccnc(C(C)(C)C(F)(F)F)c1 [Alpelisib] (partner 2 µM)
The procedure, abridged: as §1

Compound in the assay “VE-821 + Pemetrexed”: CS(=O)(=O)c1ccc(-c2cnc(N)c(C(=O)Nc3ccccc3)n2)cc1 [VE-821] + Nc1nc2[nH]cc(CCc3ccc(C(=O)N[C@@H](CCC(=O)O)C(=O)O)cc3)c2c(=O)[nH]1 [Pemetrexed] (partner 0.2 µM)
The procedure, abridged: as §1

Compound in the assay “Ruxolitinib + Pictilisib”: N#CC[C@H](C1CCCC1)n1cc(-c2ncnc3[nH]ccc23)cn1 [Ruxolitinib] + CS(=O)(=O)N1CCN(Cc2cc3nc(-c4cccc5[nH]ncc45)nc(N4CCOCC4)c3s2)CC1 [Pictilisib] (partner 1 µM)
Put shortly:
as §1

For the cell line UMC-11, the relative viability with Ruxolitinib + Linsitinib (first compound 0.08 µM) was 1.03; with Ruxolitinib + Linsitinib (first compound 0.253 µM), 1.08; with Ruxolitinib + Linsitinib (first compound 0.8 µM) it was 1.08; with Ruxolitinib + Linsitinib (first compound 2.53 µM), 1.11; with Ruxolitinib + Linsitinib (first compound 8 µM), 0.96; in the assay with VE-821 + Alpelisib (first compound 0.08 µM), 1.23. Further, the relative viability is 0.946 with VE-821 + Alpelisib (first compound 0.253 µM); 1.03 in the assay with VE-821 + Alpelisib (first compound 0.8 µM); 0.935 with VE-821 + Alpelisib (first compound 2.53 µM); 0.437 with VE-821 + Alpelisib (first compound 8 µM); 0.818 with VE-821 + Pemetrexed (first compound 0.08 µM); 0.718 with VE-821 + Pemetrexed (first compound 0.253 µM). For the same cell line, the relative viability with VE-821 + Pemetrexed (first compound 0.8 µM) worked out at 0.728; with VE-821 + Pemetrexed (first compound 2.53 µM) it was 0.513; in the assay with VE-821 + Pemetrexed (first compound 8 µM) it was 0.266; in the assay with Ruxolitinib + Pictilisib (first compound 0.08 µM), 0.738; with Ruxolitinib + Pictilisib (first compound 0.253 µM) it was 0.853; with Ruxolitinib + Pictilisib (first compound 0.8 µM) it was 1.05. For the same cell line, the relative viability is 0.958 with Ruxolitinib + Pictilisib (first compound 2.53 µM) and 0.927 with Ruxolitinib + Pictilisib (first compound 8 µM).

(Values after the supplement of paper PMC10307832.)
